The source made the active and inactive calls. Cut-off read from the data, not from the text of the source, for most assays here: actives have a measured IC50 and inactives only a lower limit.
Key:
Type in all cases: functional
[1] = molecular target: Intestinal-type alkaline phosphatase (Mus musculus, UniProt P24822); assay: PubChem AID 488785
[2] = molecular target: T1, Alkaline phosphatase, tissue-nonspecific isozyme (Homo sapiens, UniProt P05186); assay: TNAP enzyme inhibition by screening hits, dose response, selectivity assay for mouse IAP inhibitor project, biochemical, human TNAP, uHTS hits (AID 488906)
T1 sequence (P05186 whole entry): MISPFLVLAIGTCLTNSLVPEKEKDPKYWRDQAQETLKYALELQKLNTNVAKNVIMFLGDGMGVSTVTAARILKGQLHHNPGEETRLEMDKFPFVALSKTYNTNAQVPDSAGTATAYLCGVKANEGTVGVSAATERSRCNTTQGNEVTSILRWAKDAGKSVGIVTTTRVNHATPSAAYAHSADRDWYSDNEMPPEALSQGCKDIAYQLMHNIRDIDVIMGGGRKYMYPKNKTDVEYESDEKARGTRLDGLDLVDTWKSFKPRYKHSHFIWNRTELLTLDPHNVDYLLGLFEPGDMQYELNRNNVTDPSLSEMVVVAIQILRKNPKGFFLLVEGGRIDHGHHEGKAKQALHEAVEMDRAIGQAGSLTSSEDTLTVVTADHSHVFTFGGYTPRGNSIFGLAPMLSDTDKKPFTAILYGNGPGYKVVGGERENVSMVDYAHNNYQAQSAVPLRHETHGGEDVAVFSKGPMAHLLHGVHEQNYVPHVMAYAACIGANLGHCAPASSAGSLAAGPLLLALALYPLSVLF

[3] = molecular target: Intestinal-type alkaline phosphatase (Homo sapiens, UniProt P09923); assay: inhibition of human intestinal alkaline phosphatase – biochemical, dose response (AID 488876)
[4] = molecular target: Tyrosine-protein phosphatase non-receptor type 7 (Homo sapiens, UniProt P35236)
[5] = molecular target: T2, Replicative DNA helicase DnaB (Mycobacterium tuberculosis, UniProt P9WMR3); assay: DnaB intein splicing inhibitors, dose response, biochemical, cell-free fluorescence (AID 449749)
T2 sequence (P9WMR3 whole entry): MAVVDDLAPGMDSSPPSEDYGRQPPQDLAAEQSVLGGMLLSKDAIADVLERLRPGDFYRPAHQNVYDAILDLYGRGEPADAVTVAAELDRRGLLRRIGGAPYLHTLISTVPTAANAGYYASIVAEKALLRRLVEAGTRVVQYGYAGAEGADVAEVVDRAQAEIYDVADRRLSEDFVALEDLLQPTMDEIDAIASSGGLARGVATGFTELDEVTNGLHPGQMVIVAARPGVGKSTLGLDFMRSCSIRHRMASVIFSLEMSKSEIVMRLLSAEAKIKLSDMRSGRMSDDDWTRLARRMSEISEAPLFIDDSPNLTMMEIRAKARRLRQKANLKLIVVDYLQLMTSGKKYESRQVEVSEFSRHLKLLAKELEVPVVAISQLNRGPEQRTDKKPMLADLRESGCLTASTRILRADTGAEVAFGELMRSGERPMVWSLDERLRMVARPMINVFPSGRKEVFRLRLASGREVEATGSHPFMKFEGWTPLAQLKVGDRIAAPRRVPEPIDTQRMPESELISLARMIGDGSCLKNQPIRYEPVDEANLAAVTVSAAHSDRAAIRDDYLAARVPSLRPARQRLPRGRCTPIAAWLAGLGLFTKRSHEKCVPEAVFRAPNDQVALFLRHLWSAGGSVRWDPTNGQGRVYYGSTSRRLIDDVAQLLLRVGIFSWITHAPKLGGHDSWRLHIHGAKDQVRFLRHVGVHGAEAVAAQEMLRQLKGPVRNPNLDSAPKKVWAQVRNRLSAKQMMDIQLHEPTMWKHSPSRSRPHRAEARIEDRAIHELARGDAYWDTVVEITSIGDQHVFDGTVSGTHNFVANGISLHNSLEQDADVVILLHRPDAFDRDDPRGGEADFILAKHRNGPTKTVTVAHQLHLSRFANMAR

[6] = molecular target: T3, Protein RecA (Mycobacterium tuberculosis, UniProt P9WHJ3); assay: Fluorescence Cell-Free Homogeneous Dose Retest to Identify Inhibitors of RecA-Intein Splicing Activity. [Related pubchem assays (depositor defined):AID2097, AID2223, AID489010, AID492950]
T3 sequence (P9WHJ3 whole entry): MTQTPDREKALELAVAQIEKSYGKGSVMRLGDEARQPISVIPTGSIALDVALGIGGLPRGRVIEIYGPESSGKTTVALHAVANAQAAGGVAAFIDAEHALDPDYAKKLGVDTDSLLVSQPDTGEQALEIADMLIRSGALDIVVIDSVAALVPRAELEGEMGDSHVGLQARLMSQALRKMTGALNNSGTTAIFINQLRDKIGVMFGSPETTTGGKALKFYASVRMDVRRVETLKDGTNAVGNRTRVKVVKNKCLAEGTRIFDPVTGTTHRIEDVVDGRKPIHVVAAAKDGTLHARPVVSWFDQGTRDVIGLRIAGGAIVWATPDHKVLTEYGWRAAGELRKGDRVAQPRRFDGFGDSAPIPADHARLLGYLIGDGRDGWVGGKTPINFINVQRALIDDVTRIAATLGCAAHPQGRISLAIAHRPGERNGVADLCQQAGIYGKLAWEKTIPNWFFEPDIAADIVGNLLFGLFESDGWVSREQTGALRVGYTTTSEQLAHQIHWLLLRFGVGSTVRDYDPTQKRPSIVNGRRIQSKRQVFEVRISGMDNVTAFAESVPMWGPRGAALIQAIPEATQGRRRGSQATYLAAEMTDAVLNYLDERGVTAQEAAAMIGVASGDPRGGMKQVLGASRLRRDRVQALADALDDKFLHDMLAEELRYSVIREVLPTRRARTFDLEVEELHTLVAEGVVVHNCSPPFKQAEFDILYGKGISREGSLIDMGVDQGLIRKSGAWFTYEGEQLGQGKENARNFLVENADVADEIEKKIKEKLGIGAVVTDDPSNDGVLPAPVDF

[7] = molecular target: Prothrombin (Homo sapiens, UniProt P00734); assay: Thrombin 1536 HTS Dose Response Confirmation. [Related pubchem assays: 1046 (Thrombin 1536 HTS; hits were confirmed in this assay)]
[8] = molecular target: T4, Tyrosine-protein phosphatase non-receptor type 22 (Homo sapiens, UniProt Q9Y2R2)
[9] = molecular target: T4, Tyrosine-protein phosphatase non-receptor type 22; remark: listed apart in the source

T4 sequence (Q9Y2R2 whole entry): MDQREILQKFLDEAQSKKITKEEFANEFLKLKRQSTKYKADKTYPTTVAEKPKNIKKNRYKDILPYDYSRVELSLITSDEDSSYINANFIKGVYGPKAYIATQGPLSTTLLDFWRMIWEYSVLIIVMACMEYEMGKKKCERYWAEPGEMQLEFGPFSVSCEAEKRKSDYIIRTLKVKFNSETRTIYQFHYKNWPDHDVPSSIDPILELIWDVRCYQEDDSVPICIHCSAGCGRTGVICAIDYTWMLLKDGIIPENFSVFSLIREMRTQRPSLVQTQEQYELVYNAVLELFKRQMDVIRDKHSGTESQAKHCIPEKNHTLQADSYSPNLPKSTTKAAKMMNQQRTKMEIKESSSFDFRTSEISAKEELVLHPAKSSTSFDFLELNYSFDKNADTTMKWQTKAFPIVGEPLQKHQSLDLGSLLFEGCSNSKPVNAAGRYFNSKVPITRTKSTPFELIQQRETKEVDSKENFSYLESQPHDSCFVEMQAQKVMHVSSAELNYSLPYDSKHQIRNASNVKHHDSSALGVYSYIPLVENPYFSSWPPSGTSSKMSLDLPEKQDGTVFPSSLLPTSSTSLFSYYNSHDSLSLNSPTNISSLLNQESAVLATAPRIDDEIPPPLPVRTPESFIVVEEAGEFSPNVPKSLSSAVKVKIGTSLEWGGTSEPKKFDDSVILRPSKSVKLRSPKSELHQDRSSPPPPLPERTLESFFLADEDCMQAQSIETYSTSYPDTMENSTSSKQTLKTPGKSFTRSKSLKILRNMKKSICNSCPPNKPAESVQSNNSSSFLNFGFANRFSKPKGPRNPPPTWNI
Sequence of Intestinal-type alkaline phosphatase (Mus musculus, UniProt P24822) (P24822 whole entry): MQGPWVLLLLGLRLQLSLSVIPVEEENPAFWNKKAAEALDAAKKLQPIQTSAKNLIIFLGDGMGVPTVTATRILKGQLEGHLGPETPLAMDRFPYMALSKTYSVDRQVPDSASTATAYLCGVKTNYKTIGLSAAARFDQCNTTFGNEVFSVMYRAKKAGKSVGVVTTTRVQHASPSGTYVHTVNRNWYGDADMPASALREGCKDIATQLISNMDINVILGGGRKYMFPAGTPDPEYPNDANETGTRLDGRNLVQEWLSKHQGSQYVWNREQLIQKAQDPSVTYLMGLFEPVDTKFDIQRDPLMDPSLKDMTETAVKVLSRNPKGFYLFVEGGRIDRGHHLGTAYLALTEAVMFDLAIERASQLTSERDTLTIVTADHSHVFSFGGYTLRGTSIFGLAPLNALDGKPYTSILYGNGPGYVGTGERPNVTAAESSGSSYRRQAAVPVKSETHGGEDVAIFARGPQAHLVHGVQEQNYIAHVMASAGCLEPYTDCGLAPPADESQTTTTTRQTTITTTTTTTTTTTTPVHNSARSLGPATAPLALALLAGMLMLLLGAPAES
Sequence of Intestinal-type alkaline phosphatase (Homo sapiens, UniProt P09923) (P09923 whole entry): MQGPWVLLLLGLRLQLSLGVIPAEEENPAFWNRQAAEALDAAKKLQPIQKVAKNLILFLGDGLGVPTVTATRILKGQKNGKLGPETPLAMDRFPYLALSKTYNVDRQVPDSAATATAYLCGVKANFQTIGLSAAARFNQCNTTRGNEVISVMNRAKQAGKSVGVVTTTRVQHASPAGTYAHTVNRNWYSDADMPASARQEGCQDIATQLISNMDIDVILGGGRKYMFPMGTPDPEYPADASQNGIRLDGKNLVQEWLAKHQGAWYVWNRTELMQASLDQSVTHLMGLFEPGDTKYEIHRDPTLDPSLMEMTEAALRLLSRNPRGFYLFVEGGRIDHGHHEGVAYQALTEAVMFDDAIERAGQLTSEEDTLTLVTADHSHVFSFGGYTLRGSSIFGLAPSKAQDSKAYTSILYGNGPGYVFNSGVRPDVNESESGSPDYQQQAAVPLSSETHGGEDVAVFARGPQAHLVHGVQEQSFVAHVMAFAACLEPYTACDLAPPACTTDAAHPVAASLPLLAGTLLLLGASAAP
Sequence of Tyrosine-protein phosphatase non-receptor type 7 (P35236 whole entry): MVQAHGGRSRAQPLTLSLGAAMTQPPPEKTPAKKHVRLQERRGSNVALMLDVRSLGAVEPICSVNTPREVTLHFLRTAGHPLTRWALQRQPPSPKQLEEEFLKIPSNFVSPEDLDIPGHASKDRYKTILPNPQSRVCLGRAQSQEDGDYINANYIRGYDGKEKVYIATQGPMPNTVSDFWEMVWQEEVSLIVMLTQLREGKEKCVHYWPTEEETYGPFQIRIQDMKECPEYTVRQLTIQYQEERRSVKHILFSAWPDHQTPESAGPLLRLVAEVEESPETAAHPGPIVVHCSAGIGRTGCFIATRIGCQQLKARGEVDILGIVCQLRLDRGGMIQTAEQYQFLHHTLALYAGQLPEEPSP

Q: `S=C(NCc1ccccc1)NC1CCSc2ccccc21` (centres undefined) was tested. Which IC50 [1] did it give?
A: Its IC50 is 3.3 µM (active).

Q: And the IC50 [2]?
A: Its IC50 is 45.5 µM (active).

Q: What about the IC50 [3] of the same compound?
A: Its IC50 is 60.7 µM (active).

Q: Which IC50 [4] does the source give for `CSc1nc(-c2ccc(Cl)cc2)nn1C(=O)c1ccco1` here?
A: Its IC50 is > 79.4 µM (inactive).

Q: What about the AC50 [5] of the same compound?
A: The AC50 was 0.387 µM (active).

Q: What about the EC50 [6] of the same compound?
A: Its EC50 is > 380 µM (inactive).

Q: What about the IC50 [7] of the same compound?
A: Its IC50 is 2.31 µM (active).

Q: And the IC50 [8]?
A: The IC50 was > 79.4 µM (inactive).

Q: What about the IC50 [9] of the same compound?
A: The IC50 was > 79.4 µM (inactive).
